Among the data in patent US10759816B2, “Heterocyclic compounds as RSV inhibitors” (Enanta Pharmaceuticals, Inc., priority 2016, dated 2020) are EC50 values, retold here.

A value given as a limit tells only on which side of the number the result lay.

A word on the EC50: it is the midpoint of the concentration-response curve.

The assay deals with genotype A, "Long" strain RSV. As to the kind of experiment: RSV-A in vitro cytoprotection assay in HEp-2 cells (ATPlite readout of cell viability). Type of assay: cell-based, Human respiratory syncytial virus. To be noted: human respiratory syncytial virus, HEp-2, HEp-2 cells, genotype A “Long” strain RSV, cytoprotection; read-out: Human RSV-A (“Long” strain) EC50. The procedure, abridged:
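HEp-2 cells (8,000/well) given 2-fold compound dilutions in duplicate, then infected with RSV-A Long strain stock; viability read by ATPlite luminescence after 4 days. EC50 derived from cytoprotection; cytotoxicity measured on parallel uninfected plate.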
For `Cc1cccc(F)c1NC(=O)c1cc2c(s1)-c1ccccc1N(C(=O)c1cccc(N(C)C3CCS(=O)(=O)C3)n1)CC2` (stereo not shown) [Example 439], the EC50 was over 0.8 µM. For `Cc1cccc(F)c1NC(=O)c1cc2c(s1)-c1ccccc1N(C(=O)c1cccc(NC3CS(=O)(=O)C3)n1)CC2` [Example 440], the EC50 is under 0.4 µM. In the case of `Cc1cccc(F)c1NC(=O)c1cc2c(s1)-c1ccccc1N(C(=O)c1cccc(N3CC(S(C)(=O)=O)C3)n1)CC2` [Example 441] it was over 0.8 µM. Take `Cc1cccc(F)c1NC(=O)c1cc2c(s1)-c1ccccc1N(C(=O)c1cccc(N3CC4CC5CC(C4)CC3C5)n1)CC2` [Example 442]: the EC50 was over 0.8 µM. Consider `Cc1cccc(F)c1NC(=O)c1cc2c(s1)-c1ccccc1N(C(=O)c1cccc(N3CC4CCC(C4)C3)n1)CC2` [Example 443], for which the half-maximal effective concentration (EC50) was over 0.8 µM. With `Cc1cccc(F)c1NC(=O)c1cc2c(s1)-c1ccccc1N(C(=O)c1cccc(N3CCCC(C)(O)CC3)n1)CC2` (stereo not shown) [Example 444] the figure was under 0.4 µM; with `Cc1cccc(F)c1NC(=O)c1cc2c(s1)-c1ccccc1N(C(=O)c1cccc(N3CCCCC(F)(F)C3)n1)CC2` [Example 445], under 0.4 µM.

With `Cc1cccc(F)c1NC(=O)c1cc2c(s1)-c1ccccc1N(C(=O)c1cccc(N3CCNS(=O)(=O)CC3)n1)CC2` [Example 446], the EC50 was under 0.4 µM. In the case of `Cc1cccc(F)c1NC(=O)c1cc2c(s1)-c1ccccc1N(C(=O)c1cccc(N3CCN(C)S(=O)(=O)CC3)n1)CC2` [Example 447] it was under 0.4 µM; in that of `Cc1cccc(F)c1NC(=O)c1cc2c(s1)-c1ccccc1N(C(=O)c1cccc(N3CCN(C4CC4)S(=O)(=O)CC3)n1)CC2` [Example 448], under 0.4 µM. In the case of `Cc1cccc(F)c1NC(=O)c1cc2c(s1)-c1ccccc1N(C(=O)c1cccc(N3C[C@@H]4CC(F)(F)C[C@@H]4C3)n1)CC2` [Example 449] it was over 0.8 µM; in that of `Cc1cccc(F)c1NC(=O)c1cc2c(s1)-c1ccccc1N(C(=O)c1cccc(-n3c(=O)[nH]c4ccccc43)n1)CC2` [Example 450], under 0.4 µM; in that of `Cc1cccc(F)c1NC(=O)c1cc2c(s1)-c1ccccc1N(C(=O)c1cccc(N3C(=O)Cc4ccccc43)n1)CC2` [Example 451], over 0.8 µM. With `Cc1cccc(F)c1NC(=O)c1cc2c(s1)-c1ccccc1N(C(=O)c1cccc(NC3CCOCC3)n1)CC2` [Example 453] the figure was under 0.4 µM; with `Cc1cccc(F)c1NC(=O)c1cc2c(s1)-c1ccccc1N(C(=O)c1cccc(NC3CCS(=O)(=O)CC3)n1)CC2` [Example 454], over 0.8 µM.

Consider `Cc1cccc(F)c1NC(=O)c1cc2c(s1)-c1ccccc1N(C(=O)c1cccc(N(C)C3CCS(=O)(=O)CC3)n1)CC2` [Example 455], for which the EC50 was over 0.8 µM.

Consider `Cc1cccc(F)c1NC(=O)c1cc2c(s1)-c1ccccc1N(C(=O)c1cccc(N[C@@H]3CCOC3)n1)CC2` [Example 456], for which the EC50 was under 0.4 µM. With `Cc1cccc(F)c1NC(=O)c1cc2c(s1)-c1ccccc1N(C(=O)c1cccc(N[C@H]3CCOC3)n1)CC2` [Example 457], the concentration giving a half-maximal response (EC50) is under 0.4 µM. With `Cc1cccc(F)c1NC(=O)c1cc2c(s1)-c1ccccc1N(C(=O)c1cccc(NC[C@@H]3CCCO3)n1)CC2` [Example 459], the EC50 was under 0.4 µM. In the case of `Cc1cccc(F)c1NC(=O)c1cc2c(s1)-c1ccccc1N(C(=O)c1cccc(NC[C@H]3CCCO3)n1)CC2` [Example 460] it was under 0.4 µM; in that of `Cc1cccc(F)c1NC(=O)c1cc2c(s1)-c1ccccc1N(C(=O)c1cccc(N(C)CC3CCCO3)n1)CC2` (stereo not shown) [Example 461], under 0.4 µM. With `Cc1cccc(F)c1NC(=O)c1cc2c(s1)-c1ccccc1N(C(=O)c1cccc(NCC3CCCS3(=O)=O)n1)CC2` (stereo not shown) [Example 462] the figure was under 0.4 µM; with `Cc1cccc(F)c1NC(=O)c1cc2c(s1)-c1ccccc1N(C(=O)c1cccc(N(CCS(C)(=O)=O)C3CC3)n1)CC2` [Example 463], 0.4 to 0.8 µM. With `Cc1cccc(F)c1NC(=O)c1cc2c(s1)-c1ccccc1N(C(=O)c1cccc(NC(C)CS(C)(=O)=O)n1)CC2` (stereo not shown) [Example 464] the figure was over 0.8 µM; with `Cc1cccc(F)c1NC(=O)c1cc2c(s1)-c1ccccc1N(C(=O)c1cccc(NCC(C)(C)S(C)(=O)=O)n1)CC2` [Example 465], 0.4 to 0.8 µM; with `Cc1cccc(F)c1NC(=O)c1cc2c(s1)-c1ccccc1N(C(=O)c1cccc(NCC3(S(C)(=O)=O)CC3)n1)CC2` [Example 466], under 0.4 µM. For `Cc1cccc(F)c1NC(=O)c1cc2c(s1)-c1ccccc1N(C(=O)c1cccc(NCC3(CS(C)(=O)=O)CC3)n1)CC2` [Example 467], the EC50 was in the range of 0.4 to 0.8 µM. With `COC(C)(C)CN(C)c1cccc(C(=O)N2CCc3cc(C(=O)Nc4c(C)cccc4F)sc3-c3ccccc32)n1` [Example 470] the figure was under 0.4 µM; with `COCCN(c1cccc(C(=O)N2CCc3cc(C(=O)Nc4c(C)cccc4F)sc3-c3ccccc32)n1)C1CC1` [Example 471], under 0.4 µM.

In the case of `Cc1cccc(F)c1NC(=O)c1cc2c(s1)-c1ccccc1N(C(=O)c1cccc(N3CC4(CCS4(=O)=O)C3)n1)CC2` [Example 472], the EC50 is over 0.8 µM. In the case of `Cc1cccc(F)c1NC(=O)c1cc2c(s1)-c1ccccc1N(C(=O)c1cccc(N3CCC[C@@H]3c3ccccc3)n1)CC2` [Example 473] it was under 0.4 µM; in that of `Cc1cccc(F)c1NC(=O)c1cc2c(s1)-c1ccccc1N(C(=O)c1cccc(N3CCC[C@@H]3C#N)n1)CC2` [Example 474], under 0.4 µM. In the case of `Cc1cccc(F)c1NC(=O)c1cc2c(s1)-c1ccccc1N(C(=O)c1cccc(N3C(=O)OC[C@@H]3C(C)C)n1)CC2` [Example 475] it was under 0.4 µM; in that of `Cc1cccc(F)c1NC(=O)c1cc2c(s1)-c1ccccc1N(C(=O)c1cccc(NC3CS(=O)(=O)c4ccccc43)n1)CC2` (stereo not shown) [Example 476], under 0.4 µM. In the case of `Cc1cccc(F)c1NC(=O)c1cc2c(s1)-c1ccccc1N(C(=O)c1cccc(N[C@H]3CCCNC3=O)n1)CC2` [Example 477] it was over 0.8 µM; in that of `Cc1cccc(F)c1NC(=O)c1cc2c(s1)-c1ccccc1N(C(=O)c1cccc(N3CCC[C@H](N)C3=O)n1)CC2` [Example 478], over 0.8 µM; in that of `Cc1cccc(F)c1NC(=O)c1cc2c(s1)-c1ccccc1N(C(=O)c1cccc(N3CCC[C@@H]3C)n1)CC2` [Example 479], under 0.4 µM.

With `Cc1cccc(F)c1NC(=O)c1cc2c(s1)-c1ccccc1N(C(=O)c1cccc(N3C[C@H](O)C[C@@H]3C)n1)CC2` [Example 480], the EC50 was under 0.4 µM. In the case of `Cc1cccc(F)c1NC(=O)c1cc2c(s1)-c1ccccc1N(C(=O)c1cccc(N(C[C@H]3CCCO3)C3CCC3)n1)CC2` [Example 481] it was under 0.4 µM. As for `Cc1cccc(F)c1NC(=O)c1cc2c(s1)-c1ccccc1N(C(=O)c1cccc(N3CCC[C@@H]3C(C)C)n1)CC2` [Example 482], the EC50 was over 0.8 µM. In the case of `Cc1cccc(F)c1NC(=O)c1cc2c(s1)-c1ccccc1N(C(=O)c1cccc(N3CCC[C@H]3C(C)C)n1)CC2` [Example 483], the EC50 was under 0.4 µM. With `Cc1cccc(F)c1NC(=O)c1cc2c(s1)-c1ccccc1N(C(=O)c1cccc(N3CCC[C@@H]3c3ccccn3)n1)CC2` [Example 484] the figure was under 0.4 µM.

In the case of `Cc1cccc(F)c1NC(=O)c1cc2c(s1)-c1ccccc1N(C(=O)c1cccc(N3CCC[C@H]3c3ccccn3)n1)CC2` [Example 485], the EC50 was over 0.8 µM. With `Cc1cccc(F)c1NC(=O)c1cc2c(s1)-c1ccccc1N(C(=O)c1cccc(N3CCC[C@@H]3Cc3ccccc3)n1)CC2` [Example 486] the figure was over 0.8 µM; with `Cc1cccc(F)c1NC(=O)c1cc2c(s1)-c1ccccc1N(C(=O)c1cccc(N3CCC[C@H]3Cc3ccccc3)n1)CC2` [Example 487], 0.4 to 0.8 µM; with `Cc1cccc(F)c1NC(=O)c1cc2c(s1)-c1ccc(F)cc1N(C(=O)c1cccc(N3CCOc4ccccc4C3)n1)CC2` [Example 488], under 0.4 µM. With `Cc1cccc(F)c1NC(=O)c1cc2c(s1)-c1c(F)cccc1N(C(=O)c1cccc(N3CCOc4ccccc4C3)n1)CC2` [Example 489] the figure was under 0.4 µM; with `COC[C@H]1CCCN1c1cccc(C(=O)N2CCc3cc(C(=O)Nc4c(C)cccc4F)sc3-c3ccc(F)cc32)n1` [Example 490], under 0.4 µM; with `Cc1cccc(F)c1NC(=O)c1cc2c(s1)-c1ccc(F)cc1N(C(=O)c1cccc(N(C)C[C@H]3CCCO3)n1)CC2` [Example 491], under 0.4 µM. In the case of `Cc1cccc(F)c1NC(=O)c1cc2c(s1)-c1ccc(F)cc1N(C(=O)c1cccc(N3C(=O)CC[C@@H]3CN)n1)CC2` [Example 492] it was over 0.8 µM; in that of `Cc1cccc(F)c1NC(=O)c1cc2c(s1)-c1ccc(F)cc1N(C(=O)c1cccc(N3C[C@@H](O)C[C@@H]3C)n1)CC2` [Example 493], under 0.4 µM.

Turning to `CCS(=O)(=O)CCNc1cccc(C(=O)N2CCc3cc(C(=O)Nc4c(C)cccc4F)sc3-c3ccccc32)n1` [Example 494], the EC50 is under 0.4 µM. In the case of `Cc1cccc(F)c1NC(=O)c1cc2c(s1)-c1ccccc1N(C(=O)c1cccc(N3C[C@@H](O)C[C@@H]3C)n1)CC2` [Example 495], the EC50 was under 0.4 µM. With `Cc1noc([C@H]2C[C@@H](O)CN2c2cccc(C(=O)N3CCc4cc(C(=O)Nc5c(C)cccc5F)sc4-c4ccccc43)n2)n1` [Example 496] the figure was over 0.8 µM. With `Cc1noc([C@H]2C[C@H](O)CN2c2cccc(C(=O)N3CCc4cc(C(=O)Nc5c(C)cccc5F)sc4-c4ccccc43)n2)n1` [Example 497], the concentration giving a half-maximal response (EC50) is over 0.8 µM. In the case of `COC[C@H]1CCCN1c1cccc(C(=O)N2CCc3cc(C(=O)Nc4c(C)cccc4F)sc3-c3ccc(Br)cc32)n1` [Example 498] it was under 0.4 µM. With `COC[C@H]1CCCN1c1cccc(C(=O)N2CCc3cc(C(=O)Nc4c(C)cccc4F)sc3-c3ccc(C)cc32)n1` [Example 499] the figure was under 0.4 µM; with `COC[C@H]1CCCN1c1cccc(C(=O)N2CCc3cc(C(=O)Nc4c(C)cccc4F)sc3-c3ccc(C4CC4)cc32)n1` [Example 500], over 0.8 µM.
